Test results published in patent EP0133934A2, “Pharmacologically active 1,3,4-thiadiazol-(3,2-a)-thieno-(2,3-d)-pyrimidin-5-(H)one derivatives” (NIKEPHARMA S.r.l., priority 1983, dated 1985).

Assays:
[1] = tested on: Writhing test induced by phenyl-benzoquinone; assay: Phenylbenzoquinone writhing test in the rat; type: in vivo
Method: (§1) The activity tests were carried out on male Spra gue-Dawley rats weighing 200+20 g and on male Swiss mice weighing 26+3 g.
(§2) The test compounds were administered orally by means of gastroesophageal tube, in the form of a suspen sion in a 10 ml/kg mucilage of 5% gum arabic; and intraperitoneally in the form of an aqueous suspen sion added with a few drops of Tween 80, in the con stant volume of 10 ml/kg.

[2] = tested on: phenylbenzoquinone writhing test; assay: Phenylbenzoquinone writhing test in the mouse (ED50 and duration of effect); type: in vivo; conditions: for % INHI-BITION / N° OF WRITHES IN 10' ml ± E.S.: Table 6, oral, one hour before the test; for N° OF WRITHES IN 10' ml ± E.S.: controls 52.4 ± 1.69; for % INHIBITION / Nº OF WRITHES IN 10' ml ± E.S.: Table 7, oral 1 mg/kg; for Nº OF WRITHES IN 10' ml ± E.S.: controls 53.2 ± 1.26
Method: The analgesic effect was determined by the number of writhes of the abdomen recorded during 10 minutes (from 5 to 15 minutes after the phenylbenzo quinone injection).

gastric ulceration = type: in vivo, rat; conditions: os, 400 mg/kg
Method: To rats fasted for 18 hours, with water ad libitum, were administered the compounds under test at "0" time and after 2 hours. Control rats were treated with established anti-inflammatory agents.
6 Hours after the beginning of the test, the animals were killed by ether inhalation.
Gastric ulceration was assessed on the ground of values ranging from 0 to 4: • 0 = no ulceration; • 1 = slight iperhaemia and/or a few ulcers; • 2 = severe iperhaemia and many punctiform ulcers; • 3 = severe submucosal hemorrage, one large ulcer and many punctiform ulcers; • 4 severe submucosal hemorrage and many large ulcers.
The ulcerogenic index was measured by the following formula (Lwoff. J.M., J. Pharmacol., 2, 81, 1971): [formula]

carrageenin oedema = assay: Antiinflammatory activity: carrageenin oedema in the rat; type: in vivo; conditions: po, 4 h, os, 100 mg/kg, one hour before carrageenin, read-out: OEDEMA INHIBITION % at the fourth hour
Method: as §1, §2
The compounds under test and the control ones were administered orally one hour before the injection of 0.1 ml of 1% carrageenin in the right paw of the animals.
The volume of the paw was measured by means of a plethysmograph immediately before the injection and 2, 4 and 6 hours after.
The results were expressed as percentage inhibi tion of the oedema in the treated animals in comparison with the control animals, at the time of the maximum oedema development (fourth hour after the carrageenin injection).

Carrageenin pleuritis = Carrageenin pleuritis in the rat; type: in vivo; conditions: for EXUDATE VOLUME: 30 min. before carrageenin and 6 hours after, exudate at 18 hours, controls 2.76 ± 0.38
Method: Compound HA-34 was tested for the protective activity against the exudative pleuritis reaction induced by carrageenin. HA-34 was administered 30 min. before the injection of carrageenin, and 6 hours after it. The experiment was carried out on male Spra- gue-Dawley rats, anestethized with ethyl urethane, which were subjected, in their right pleural cavity, to injection of 1.5 ml of air and then 0.1 ml of a 1% carrageenin solution, in sterile normal saline, according to the procedure by Van Armann et al. (J. Pharmac. Exp. Ther., 150, 328, 1965). Indometha cin and Piroxicam were employed as the control drugs, under the same conditions. 18 Hours after the intrapleuric carrageenin injec tion, the animals were killed by means of ether inhalation, and the pleuric exudate was collected and measured.

acetic acid peritonitis = assay: Anti-exudative activity: acetic acid peritonitis in the rat; type: in vivo; conditions: for EXUDATE VOLUME ml ± E.S.: controls 2.58 ± 0.18
Method: The test was carried out according to the procedure described by Arrigoni-Martelli (Boll.Chim. Far. 107, 29, 1968). This method is based upon the evaluation of the anti-exudative effect of a drug at the peritoneal level, following a intraperitoneal injection of 10 ml/kg of a 0.5% acetic acid solution.
The compounds under test were administered oral ly one hour before the inflammatory agent; 30 minutes after the treatment the animals were killed and the fluid from the peritoneal cavity was drawn and measured.
The test compounds were administered by oral route 1 hour before intraperitoneal injection of acetic acid (10 ml/kg of a 0.5% solution).
The anti-exudative activity was determined on the basis of the peritoneal exudate of the treated animals, in comparison with the controls.

[3] = 30 min. before phenylbenzoquinone

CSc1nn2c(=O)c3c4c(sc3nc2s1)CCCC4 [HA 34, 2-Methyl-mercapto-6,7,8,9-tetrahydro-5H[1]-benao-thieno[2,3-d]-1,3,4-thiadiazole[3,2-a]pyrimidin-5[H]-one]
inhibition in vivo at 0.5 mg/kg ([1]; Rattus norvegicus, po, 10 min, os, 0.5 mg/kg, read-out: % INHIBI-TION): 24%
inhibition in vivo at 5 mg/kg ([1]; Rattus norvegicus, po, 10 min, os, 5 mg/kg, read-out: % INHIBI-TION): 81%
analgesic action ([1]; oral doses of 5 and 0.5 mg/kg, result in words): the more active of the tested compounds
ED50 ([2]; Mus musculus, 1 h, oral administration one hour before the test, read-out: ED50): 1 mg/kg
% INHI-BITION ([2]; 0.1 mg/kg): 15.8%
N° OF WRITHES IN 10' ml ± E.S. ([2]; 0.1 mg/kg): 44.1 ± 1.12
% INHI-BITION ([2]; 0.5 mg/kg): 31.3%
N° OF WRITHES IN 10' ml ± E.S. ([2]; 0.5 mg/kg): 36.0 ± 1.33
% INHI-BITION ([2]; 1 mg/kg): 67.2%
N° OF WRITHES IN 10' ml ± E.S. ([2]; 1 mg/kg): 17.2 ± 0.87
% INHI-BITION ([2]; 2 mg/kg): 73.6%
N° OF WRITHES IN 10' ml ± E.S. ([2]; 2 mg/kg): 13.8 ± 1.12
% INHI-BITION ([2]; 5 mg/kg): 79.8%
N° OF WRITHES IN 10' ml ± E.S. ([2]; 5 mg/kg): 10.6 ± 1.06
% INHIBITION [2, 3]: 63.9%
Nº OF WRITHES IN 10' ml ± E.S. [2, 3]: 19.2 ± 1.18
% INHIBITION ([2]; 1 h before phenylbenzoquinone): 65.4%
Nº OF WRITHES IN 10' ml ± E.S. ([2]; 1 h before phenylbenzoquinone): 18.4 ± 1.07
% INHIBITION ([2]; 3 h before phenylbenzoquinone): 69.9%
Nº OF WRITHES IN 10' ml ± E.S. ([2]; 3 h before phenylbenzoquinone): 16.0 ± 1.26
% INHIBITION ([2]; 4 h before phenylbenzoquinone): 65.4%
Nº OF WRITHES IN 10' ml ± E.S. ([2]; 4 h before phenylbenzoquinone): 18.4 ± 1.74
% INHIBITION ([2]; 6 h before phenylbenzoquinone): 62.0%
Nº OF WRITHES IN 10' ml ± E.S. ([2]; 6 h before phenylbenzoquinone): 20.2 ± 1.24
% INHIBITION ([2]; 8 h before phenylbenzoquinone): 59.4%
Nº OF WRITHES IN 10' ml ± E.S. ([2]; 8 h before phenylbenzoquinone): 21.6 ± 1.32
% INHIBITION ([2]; 24 h before phenylbenzoquinone): 58.3%
Nº OF WRITHES IN 10' ml ± E.S. ([2]; 24 h before phenylbenzoquinone): 22.2 ± 1.46
% INHIBITION ([2]; 32 h before phenylbenzoquinone): 30.6%
Nº OF WRITHES IN 10' ml ± E.S. ([2]; 32 h before phenylbenzoquinone): 36.9 ± 2.01
duration of action ([2]; oral 1 mg/kg, result in words): longer lasting than that of Indomethacin and substantially comparable with that of Piroxicam
ULCERA-TION INDEX (gastric ulceration): 0
% ANIMALS WITH ULCERS (gastric ulceration; at 0 time and after 2 hours, killed at 6 hours): 0%
ULCERA-TION DEGREE (gastric ulceration; scale 0 to 4): 0
inhibition in vivo at 100 mg/kg (carrageenin oedema): 48.8 ± 0.91%
% INHIBITION (Carrageenin pleuritis; 5 mg/kg): 34.8%
EXUDATE VOLUME (Carrageenin pleuritis; 5 mg/kg): 1.80 ± 0.29
% INHIBITION (Carrageenin pleuritis; 10 mg/kg): 63.0%
EXUDATE VOLUME (Carrageenin pleuritis; 10 mg/kg): 1.02 ± 0.26
inhibiting action on the pleuric exudative reaction (Carrageenin pleuritis; at the tested doses, result in words): significant inhibiting action
inhibition in vivo at 10 mg/kg (acetic acid peritonitis; Rattus norvegicus, po, Table 4, os, 10 mg/kg): 64%
inhibition in vivo at 0.1 mg/kg (acetic acid peritonitis; Rattus norvegicus, po, Table 8, oral, 0.1 mg/kg): 26.7%
inhibition in vivo at 0.5 mg/kg (acetic acid peritonitis; Rattus norvegicus, po, Table 8, oral, 0.5 mg/kg): 48%
inhibition in vivo at 1 mg/kg (acetic acid peritonitis; Rattus norvegicus, po, Table 8, oral, 1 mg/kg): 53.2%
inhibition in vivo at 10 mg/kg (acetic acid peritonitis; Rattus norvegicus, po, Table 8, oral, 10 mg/kg): 78.8%
inhibition in vivo at 20 mg/kg (acetic acid peritonitis; Rattus norvegicus, po, Table 8, oral, 20 mg/kg): 94.2%
ED50 (acetic acid peritonitis; Rattus norvegicus, oral administration 1 hour before i.p. acetic acid): 0.7 mg/kg
PERITONEAL EXUDATE ml ± E.S. (acetic acid peritonitis; Table 4, os, 10 mg/kg, controls 2.91 ± 0.12): 0.75 ± 0.11 mL
EXUDATE VOLUME ml ± E.S. (acetic acid peritonitis; Table 8, oral, 0.1 mg/kg, 1 hour before acetic acid): 1.89 ± 0.14 mL
EXUDATE VOLUME ml ± E.S. (acetic acid peritonitis; Table 8, oral, 0.5 mg/kg): 1.34 ± 0.07 mL
EXUDATE VOLUME ml ± E.S. (acetic acid peritonitis; Table 8, oral, 1 mg/kg): 1.20 ± 0.10 mL
EXUDATE VOLUME ml ± E.S. (acetic acid peritonitis; Table 8, oral, 10 mg/kg): 0.54 ± 0.08 mL
EXUDATE VOLUME ml ± E.S. (acetic acid peritonitis; Table 8, oral, 20 mg/kg): 0.15 ± 0.07 mL
